For data set [1] the following is noted: ruminants; published in WO 00/28835; cited from earlier work.
The conditions of data set [2]: HMBi applied to a porous support; compared with WO 00/28835; EP 1358805; cited from earlier work.
For data set [3] the following is noted: European Commission report, 25 Apr. 2003; cited from earlier work.
The conditions of data set [4]: in vivo; cited from earlier work.
The conditions of data set [5]: feeding experiments with rodents and poultry; compared with MHA; cited from earlier work.

This is an account of results in patent US7815950B2, “Ketomethionine ketals and derivatives thereof” (Evonik Degussa GmbH, priority 2006, dated 2010).

Each structure is given as a SMILES string. Read-outs that look alike come from different tables or passages of the source.

As to `CSCCC(N)C(=O)OC(C)(C)C` (racemic) [D,L-tert-butylmethionine, reference compound], the biological value in data set [1] is 80%. `CSCCC1(O)OCC(C)(C)COC1=O` (racemic) [Example 4, rac-4,4-dimethyl-7-hydroxy-7-(2-(methylthio)ethyl)-6-oxacaprolactone] came in with a melting point of 109 °C. Molecule `CSCCC1(C(=O)O)OCCO1` [Example 2, 2-(2-(methylthio)ethyl)-1,3-dioxolane-2-carboxylic acid] had a melting point of 74 °C.

With `CSCCC12OCC(CO1)OC2=O` [Example 5, 4-(2-(methylthio)ethyl)-2,5,8-trioxabicyclo[2.2.2]octan-3-one], the melting point worked out at 39.5 °C. On to `CSCCC(O)C(=O)OC(C)C` (stereo not drawn) [HMBi], for which the biological value entry in data set [2] is recorded as “comparable biological value”; in data set [1] it was “at least 50%”. Besides, the “absorbed via the rumen wall” value in data set [3] is “approximately 50%”. Turning to `CSCCC(O)C(=O)O` (stereo not drawn) [MHA, hydroxymethylthiobutyric acid], in data set [4], the “supplemented MHA that, after absorption in the small intestine, can pass into metabolism” value was 20-40%. Consider `CSCCC(=O)C(=O)[O-].[Na+]` [sodium salt of α-ketomethionine], for which the biological value entry in data set [5] is on record as “significantly above that of MHA”.
